Counter-ions that a name gives are not always drawn.
Molecular target: T1, Human Recombinant ROCK-II Enzyme (ROKα/ROCK-II, aa 11-552) (Homo sapiens, UniProt O75116)
T1 construct: (ROKα/ROCK-II, (aa 11-552), human active); purchased Upstate Biotechnology Co., Lake Placid, N.Y. 14-451
Experiment: ROCK-II inhibition, fluorescence polarization assay (IMAP ROCK II kit)
Assay type: biochemical
Details: substrate 200 nM, ATP 10 μM, 60 min at 23° C., read-out: Enzyme Inhibition Constants (IC50) against Human Recombinant ROCK-II Enzyme
Description: The ability of certain compounds of Formula (I) to inhibit rho kinase was evaluated by means of in vitro assays. Human recombinant Rho kinase (ROKα/ROCK-II, (aa 11-552), human active, catalog #14-451, Upstate Biotechnology Co., Lake Placid, N.Y.), MgCl2/ATP cocktail, and enzyme substrate (Upstate) are used.
The fluorescence polarization assays are performed using a Biomek 2000 Robotic Workstation (Beckman Instruments, Palo Alto, Calif.) in a 96-well plate format. The assays are performed utilizing the IMAP ROCK II kit (Molecular Devices, Sunnyvale, Calif.) as follows. Substrate and ATP concentrations used are 200 nM and 10 μM, respectively, while the enzyme concentration is 3.96×10^−3 units per well. The substrate, enzyme, and ATP dilutions are made with the reaction buffer provided by the vendor. Test compounds are diluted in 10:10 DMSO-ethanol (vol/vol). For the actual assays, the various components are added into black, clear bottom, 96-well plates (Costar, Corning, N.Y.) in a final volume of 20 μl per well. After the enzyme reaction (60 min at 23° C.), 60 μl of the binding solution (IMAP kit, provided by vendor) is added per well and incubated for an additional 30 minutes in the dark at 23° C. Fluorescence polarization of the reaction mixtures is then measured on the Analyst™ HT instrument (Molecular Devices, Sunnyvale, Calif.).
The data generated are then analyzed using a non-linear, iterative, sigmoidal-fit computer program purchased from IDBS (Emeryville, Calif.) and as previously described (Sharif et al., J. Pharmacol. Exp. Ther. 286:1094-1102, 1998; Sharif et al., J. Pharmacol. Expt. Ther. 293:321-328, 2000; Sharif et al., J. Ocular Pharmacol. Ther. 18:141-162, 2002a; Sharif et al., J. Pharmac. Pharmacol. 54:539-547, 2002b) to generate the inhibition constants for the test compounds.

T1 sequence (O75116 11-552): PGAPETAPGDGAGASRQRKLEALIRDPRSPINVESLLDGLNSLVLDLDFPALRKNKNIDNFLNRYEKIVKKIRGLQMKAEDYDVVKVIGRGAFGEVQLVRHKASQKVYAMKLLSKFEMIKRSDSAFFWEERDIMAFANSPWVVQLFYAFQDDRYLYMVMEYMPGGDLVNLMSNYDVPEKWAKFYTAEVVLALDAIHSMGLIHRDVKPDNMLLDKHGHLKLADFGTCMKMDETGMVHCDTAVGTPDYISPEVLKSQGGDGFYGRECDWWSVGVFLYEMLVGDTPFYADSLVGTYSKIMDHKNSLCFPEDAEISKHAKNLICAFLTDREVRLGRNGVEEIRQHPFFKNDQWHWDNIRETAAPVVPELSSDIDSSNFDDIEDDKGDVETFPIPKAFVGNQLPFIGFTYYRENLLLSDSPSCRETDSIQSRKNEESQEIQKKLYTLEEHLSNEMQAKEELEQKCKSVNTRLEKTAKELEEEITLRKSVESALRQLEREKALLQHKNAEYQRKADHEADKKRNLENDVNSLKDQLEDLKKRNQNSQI

Compound	IC50
CN1CCCN(c2nc(-c3ccncc3)cnc2N)CC1 [Example 1, 3-(4-Methyl-1,4-diazepan-1-yl)-5-(pyridin-4-yl)pyrazin-2-amine]	3 nM
Cc1cnccc1-c1cnc(N)c(N2CCCN(C)CC2)n1 [Example 2, 3-(4-Methyl-1,4-diazepan-1-yl)-5-(3-methylpyridin-4-yl)pyrazin-2-amine hydrochloride]	58 nM
CN1CCCN(c2nc(-c3cc[nH]n3)cnc2N)CC1 [Example 3, 3-(4-Methyl-1,4-diazepan-1-yl)-5-(1H-pyrazol-3-yl)pyrazin-2-amine]	2.8 nM
CN1CCCN(c2nc(-c3ccnc4[nH]ccc34)cnc2N)CC1 [Example 4, 3-(4-Methyl-1,4-diazepan-1-yl)-5-(1H-pyrrolo[2,3-b]pyridin-4-yl)pyrazin-2-amine]	0.53 nM
CN1CCCN(c2nc(-c3cccc4[nH]ncc34)cnc2N)CC1 [Example 5, 5-(1H-indazol-4-yl)-3-(4-methyl-1,4-diazepan-1-yl)pyrazin-2-amine dihydrochloride]	25 nM
CN1CCCN(c2nc(-c3ccc4[nH]ncc4c3)cnc2N)CC1 [Example 7, 5-(1H-Indazol-5-yl)-3-(4-methyl-1,4-diazepan-1-yl)pyrazin-2-amine dihydrochloride]	0.95 nM
CN1CCCN(c2nc(-c3ccnc(N)c3)cnc2N)CC1 [Example 8, 5-(2-Aminopyridin-4-yl)-3-(4-methyl-1,4-diazepan-1-yl)pyrazin-2-amine trihydrochloride]	53 nM
Nc1ncc(-c2ccncc2)nc1N(CCO)CCO [Example 9, 2,2′-(3-Amino-6-(pyridin-4-yl)pyrazin-2-ylazanediyl)diethanol]	22 nM
Nc1ncc(-c2ccncc2)nc1N1CCCCC1 [Example 10, 3-(Piperidin-1-yl)-5-(pyridin-4-yl)pyrazin-2-amine]	59 nM
Nc1ncc(-c2ccncc2)nc1N1CCC(CO)CC1 [Example 11, (1-(3-Amino-6-(pyridin-4-yl)pyrazin-2-yl)piperidin-4-yl)methanol]	17 nM
Nc1ncc(-c2ccncc2)nc1N1CCC(O)CC1 [Example 12, 1-(3-Amino-6-(pyridin-4-yl)pyrazin-2-yl)piperidin-4-ol]	6.9 nM
CN(C)C1CCN(c2nc(-c3ccncc3)cnc2N)CC1 [Example 13, 3-(4-(Dimethylamino)piperidin-1-yl)-5-(pyridin-4-yl)pyrazin-2-amine]	6.4 nM
CN1CCC(Nc2nc(-c3ccncc3)cnc2N)CC1 [Example 14, N,N-(1-Methylpiperidin-4-yl)-6-(pyridin-4-yl)pyrazine-2,3-diamine]	3.5 nM
CN1CCCC(Nc2nc(-c3ccncc3)cnc2N)C1 (stereo not shown) [Example 15, N,N-(1-Methylpiperidin-3-yl)-6-(pyridin-4-yl)pyrazine-2,3-diamine]	5.5 nM
Nc1ncc(-c2ccncc2)nc1NC1CCNCC1 [Example 16, N,N-2-(Piperidin-4-yl)-6-(pyridin-4-yl)pyrazine-2,3-diamine]	0.82 nM
Nc1ncc(-c2ccncc2)nc1NC1CCCNC1 (stereo not shown) [Example 17, N,N-(Piperidin-3-yl)-6-(pyridin-4-yl)pyrazine-2,3-diamine]	0.21 nM
CN1CCC(N(C)c2nc(-c3ccncc3)cnc2N)CC1 [Example 18, N,N-Methyl-N,N-(1-methylpiperidin-4-yl)-6-(pyridin-4-yl)pyrazine-2,3-diamine]	9.6 nM
Nc1ncc(-c2ccncc2)nc1NC1CCNC1 (stereo not shown) [Example 19, 6-(Pyridin-4-yl)-N^2-(pyrrolidin-3-yl)pyrazine-2,3-diamine]	0.064 nM
CN1CCC(Oc2nc(-c3ccncc3)cnc2N)CC1 [Example 20, 3-(1-Methylpiperidin-4-yloxy)-5-(pyridin-4-yl)pyrazin-2-amine]	5.6 nM
CN1CCCC(Oc2nc(-c3ccncc3)cnc2N)C1 (stereo not shown) [Example 21, 3-(1-Methylpiperidin-3-yloxy)-5-(pyridin-4-yl)pyrazin-2-amine]	4.2 nM

Compound	IC50
Nc1ncc(-c2ccncc2)nc1OC1CCNCC1 [Example 22, 3-(Piperidin-4-yloxy)-5-(pyridin-4-yl)pyrazin-2-amine]	1.1 nM
Nc1ncc(-c2ccncc2)nc1OC1CCCNC1 (stereo not shown) [Example 23, 3-(Piperidin-3-yloxy)-5-(pyridin-4-yl)pyrazin-2-amine]	0.68 nM
Nc1ncc(-c2ccncc2)nc1N1CCN(CCCO)CC1 [Example 24, 3-(4-(3-Amino-6-(pyridin-4-yl)pyrazin-2-yl)piperazin-1-yl)propan-1-ol]	1.7 nM
CNc1ncc(-c2ccncc2)nc1N1CCCN(C)CC1 [Example 25, N-Methyl-3-(4-methyl-1,4-diazepan-1-yl)-5-(pyridin-4-yl)pyrazin-2-amine hydrochloride]	2.4 nM
CNc1ncc(-c2ccncc2)nc1NC1CCCNC1 (stereo not shown) [Example 26, N^2-Methyl-N^3-(piperidin-3-yl)-5-(pyridin-4-yl)pyrazine-2,3-diamine hydrochloride]	2.1 nM
COCCNc1ncc(-c2ccncc2)nc1N1CCCN(C)CC1 [Example 27, N-(2-Methoxyethyl)-3-(4-methyl-1,4-diazepan-1-yl)-5-(pyridin-4-yl)pyrazin-2-amine hydrochloride]	5.2 nM
CN1CCCN(c2nc(-c3ccncc3)cnc2NCCO)CC1 [Example 28, 2-(3-(4-Methyl-1,4-diazepan-1-yl)-5-(pyridin-4-yl)pyrazin-2-ylamino)ethanol hydrochloride]	3 nM
COCCN(C)c1ncc(-c2ccncc2)nc1N1CCCN(C)CC1 [Example 29, N-(2-Methoxyethyl)-N-methyl-3-(4-methyl-1,4-diazepan-1-yl)-5-(pyridin-4-yl)pyrazin-2-amine hydrochloride]	45 nM
CN(C)c1ncc(-c2ccncc2)nc1N1CCN(CCO)CC1 [Example 30, 2-(4-(3-(Dimethylamino)-6-(pyridin-4-yl)pyrazin-2-yl)piperazin-1-yl)ethanol hydrochloride]	0.3 nM
CN(C)c1ncc(-c2ccnc3[nH]ccc23)nc1N1CCN(CCO)CC1 [Example 31, 2-(4-(3-(Dimethylamino)-6-(1H-pyrrolo[2,3-b]pyridin-4-yl)pyrazin-2-yl)piperazin-1-yl)ethanol]	0.053 nM
CN1CCCN(c2nc(-c3ccncc3)cnc2N(C)C)CC1 [Example 32, N,N-dimethyl-3-(4-methyl-1,4-diazepan-1-yl)-5-(pyridin-4-yl)pyrazin-2-amine hydrochloride]	1.7 nM
CN1CCCN(c2nc(-c3ccnc4[nH]ncc34)cnc2N(C)C)CC1 [Example 33, N,N-Dimethyl-3-(4-methyl-1,4-diazepan-1-yl)-5-(1H-pyrazolo[3,4-b]pyridin-4-yl)pyrazin-2-amine dihydrochloride]	0.54 nM
CN(C)c1ncc(-c2ccncc2)nc1NC1CCCNC1 (stereo not shown) [Example 34, N,N-(Piperidin-3-yl)-6-(pyridin-4-yl)pyrazine-2,3-diamine]	3.1 nM
CN(C)c1ncc(-c2ccncc2)nc1OC1CCNCC1 [Example 35, N,N-Dimethyl-3-(piperidin-4-yloxy)-5-(pyridin-4-yl)pyrazin-2-amine hydrochloride]	0.94 nM
CN(C)CCCOc1nc(-c2ccncc2)cnc1N(C)C [Example 36, 3-(3-(Dimethylamino)propoxy)-N,N-dimethyl-5-(pyridin-4-yl)pyrazin-2-amine hydrochloride]	11 nM
CCN(CC)c1ncc(-c2ccncc2)nc1N1CCCN(C)CC1 [Example 37, N,N-Diethyl-3-(4-methyl-1,4-diazepan-1-yl)-5-(pyridin-4-yl)pyrazin-2-amine hydrochloride]	6.7 nM
CN1CCCN(c2nc(-c3ccncc3)cnc2N2CCCC2)CC1 [Example 38, 1-Methyl-4-(6-(pyridin-4-yl)-3-(pyrrolidin-1-yl)pyrazin-2-yl)-1,4-diazepane hydrochloride]	0.33 nM
CN1CCCN(c2nc(-c3ccnc4[nH]ccc34)cnc2N2CCCC2)CC1 [Example 39, 4-(6-(4-Methyl-1,4-diazepan-1-yl)-5-(pyrrolidin-1-yl)pyrazin-2-yl)-1H-pyrrolo[2,3-b]pyridine dihydrochloride]	0.16 nM
c1cc(-c2cnc(N3CCCC3)c(N3CCCNCC3)n2)ccn1 [Example 40, 1-(6-(Pyridin-4-yl)-3-(pyrrolidin-1-yl)pyrazin-2-yl)-1,4-diazepane hydrochloride]	0.33 nM
c1cc2[nH]ncc2cc1-c1cnc(N2CCCC2)c(N2CCCNCC2)n1 [Example 42, 5-(6-(1,4-Diazepan-1-yl)-5-(pyrrolidin-1-yl)pyrazin-2-yl)-1H-indazole hydrochloride]	0.033 nM

Reference: patent US20100216777A1, “AMINOPYRAZINE ANALOGS FOR TREATING GLAUCOMA AND OTHER RHO KINASE-MEDIATED DISEASES AND CONDITIONS” (ALCON, INC., priority 2004, published 2010)
